According to the CheMixHub drug solubility set:

Assay: xn = mol fraction of the nth substance listed, in the solute-free solvent

CC1CCC2C(C)C(OC(=O)CCC(=O)O)OC3OC4(C)CCC1C32OO4 (configuration not stated) + CC(O)CO + O
solubility (g/100 g solution)
Details	278.15 K	283.15 K	288.15 K	293.15 K	298.15 K	303.15 K	308.15 K	313.15 K	318.15 K
x2 = 0.02567	0.0421	0.056	0.0717	0.092	0.114	0.145	0.181	0.223	0.275
x2 = 0.05599	0.0843	0.11	0.139	0.176	0.215	0.27	0.333	0.404	0.492
x2 = 0.0921	0.155	0.201	0.25	0.313	0.377	0.466	0.568	0.682	0.819
x2 = 0.1363	0.259	0.33	0.408	0.503	0.606	0.737	0.888	1.05	1.25
x2 = 0.1915	0.384	0.484	0.593	0.724	0.853	1.03	1.23	1.45	1.71
x2 = 0.2622	0.501	0.635	0.77	0.932	1.1	1.3	1.55	1.81	2.09
x2 = 0.3554	0.579	0.73	0.88	1.06	1.24	1.46	1.72	2	2.3
x2 = 0.4866	0.602	0.746	0.906	1.08	1.27	1.48	1.75	2.01	2.31
x2 = 0.6826	0.571	0.704	0.845	1.02	1.19	1.38	1.62	1.86	2.12

CCOC(=O)OC1=C(c2cc(C)ccc2C)C(=O)NC12CCC(OC)CC2 (configuration not stated) + CC(C)=O + O
solubility (g/100 g solution)
Details	278.15 K	283.15 K	288.15 K	293.15 K	298.15 K	303.15 K	308.15 K	313.15 K	318.15 K
x2 = 0.2	0.475	0.687	0.839	1.08	1.39	1.78	2.25	2.83	3.61
x2 = 0.4	3.7	4.54	5.58	6.92	8.55	10.5	12.8	15.7	19
x2 = 0.6	7.51	9.16	10.8	13	15.4	18.3	21.6	25.5	29.7
x2 = 0.8	9.34	10.6	12.6	14.8	17.3	20.3	23.7	27.4	31.4

NC(=O)NC1NC(=O)NC1=O (configuration not stated) + O + CCO
solubility (g/100 g solution)
Details	288.15 K	293.15 K	298.15 K	303.15 K	308.15 K	313.15 K	318.15 K	323.15 K	328.15 K	333.15 K
x2 = 0.264	0.0433	0.0548	0.0707	0.0891	0.116	0.137	0.163	0.189	0.225	0.262
x2 = 0.447	0.0924	0.108	0.137	0.174	0.216	0.263	0.298	0.355	0.417	0.46
x2 = 0.683	0.159	0.202	0.268	0.332	0.409	0.535	0.646	0.76	0.923	1.09
x2 = 0.829	0.239	0.306	0.394	0.487	0.63	0.785	1.02	1.21	1.48	1.74
x2 = 0.928	0.264	0.353	0.5	0.619	0.787	0.968	1.3	1.58	1.97	2.33
